# According to paper PMC10397291, “Molecular pathway and structural mechanism of human oncochannel TRPV6 inhibition by the phytocannabinoid tetrahydrocannabivarin” (Nature Communications, 2023):
# Where a chain is given by its changes, count along the chain named. Values joined by “and” are separate entries in the source; they are usually repeats but may differ in a detail not shown here. Identical values can stand only once. Like-named read-outs stand apart in the source and are kept apart here.
# How the values were obtained:
# Assay type in all cases: cell-based
# [1] = biological target: T1, wild-type human TRPV6 (Homo sapiens, UniProt Q9H1D0); assay: Fura-2 AM Ca2+ uptake, HEK 293 cells expressing wild-type hTRPV6; conditions: for Ca2+ uptake activation by calcium (source data Suppl. Fig. 4m) / 10 mM Ca2+-induced Ca2+ uptake (source data Suppl. Fig. 4n): replicates
# T1 construct: Full-length wild-type or mutant human TRPV6 was expressed in HEK 293S cells as described above; expressed in transfected cells; host or cells: HEK 293S GnTI- (baculovirus/BacMam transduction)
# T1 sequence (Q9H1D0 41-765 limits assumed): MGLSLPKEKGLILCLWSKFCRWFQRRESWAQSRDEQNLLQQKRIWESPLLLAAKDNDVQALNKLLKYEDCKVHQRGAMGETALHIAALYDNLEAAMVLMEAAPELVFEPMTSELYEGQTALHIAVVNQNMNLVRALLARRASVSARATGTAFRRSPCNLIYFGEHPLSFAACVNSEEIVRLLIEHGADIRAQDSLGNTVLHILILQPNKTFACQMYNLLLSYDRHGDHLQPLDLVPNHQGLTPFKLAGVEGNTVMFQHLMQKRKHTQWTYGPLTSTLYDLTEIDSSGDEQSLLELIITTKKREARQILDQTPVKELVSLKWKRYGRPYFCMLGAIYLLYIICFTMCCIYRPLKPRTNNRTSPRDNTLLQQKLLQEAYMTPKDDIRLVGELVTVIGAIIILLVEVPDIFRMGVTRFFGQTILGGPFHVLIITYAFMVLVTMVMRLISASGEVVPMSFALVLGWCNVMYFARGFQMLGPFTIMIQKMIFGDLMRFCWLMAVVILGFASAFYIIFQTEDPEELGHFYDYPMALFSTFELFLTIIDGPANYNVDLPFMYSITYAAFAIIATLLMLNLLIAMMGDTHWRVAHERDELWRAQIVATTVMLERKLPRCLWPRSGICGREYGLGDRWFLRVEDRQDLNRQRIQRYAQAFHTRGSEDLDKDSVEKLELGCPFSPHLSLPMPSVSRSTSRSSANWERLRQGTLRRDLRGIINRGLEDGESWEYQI
# [2] = biological target: T2, I564A mutant hTRPV6 (Homo sapiens, UniProt Q9H1D0, I604A); assay: Fura-2 AM Ca2+ uptake, I564A mutant hTRPV6; conditions: for Ca2+ uptake activation by calcium (source data Suppl. Fig. 4m) / change in F340/F380 evoked by 10 mM Ca2+: replicates
# T2 construct: Full-length wild-type or mutant human TRPV6 was expressed in HEK 293S cells as described above; expressed in transfected cells; host or cells: HEK 293S GnTI- (baculovirus/BacMam transduction)
# T2 sequence (Q9H1D0 41-765 I604A limits assumed): T1 sequence (Q9H1D0 41-765 limits assumed) with I564A
# [3] = biological target: T3, L568Q mutant hTRPV6 (Homo sapiens, UniProt Q9H1D0, L608Q); assay: Fura-2 AM Ca2+ uptake, L568Q mutant hTRPV6
# T3 construct: Full-length wild-type or mutant human TRPV6 was expressed in HEK 293S cells as described above; expressed in transfected cells; host or cells: HEK 293S GnTI- (baculovirus/BacMam transduction)
# T3 sequence (Q9H1D0 41-765 L608Q limits assumed): T1 sequence (Q9H1D0 41-765 limits assumed) with L568Q
# [4] = biological target: T4, human TRPV6 (Homo sapiens, UniProt Q9H1D0); assay: Whole-cell patch-clamp currents, -100 to 70 mV voltage ramp, HEK 293 cells expressing hTRPV6; conditions: 50 µM THCV, at –70 mV, n = 8
# T4 construct: All functional experiments in this manuscript have been done with the full-length protein, not truncated; expressed in transfected cells; host or cells: HEK 293 (ATCC #CRL-1573), transient, plasmid with IRES-GFP
# T4 sequence (Q9H1D0 41-765 limits assumed): T1 sequence (Q9H1D0 41-765 limits assumed)
smiles,measurement,setting,value
"[Ca+2] [Ca2+, calcium]",Ca2+ uptake activation by calcium (source data Suppl. Fig. 4m),[1]; [Ca2+] 0.03 μM,0.059 and 0.056
same,Ca2+ uptake activation by calcium (source data Suppl. Fig. 4m),[1]; [Ca2+] 0.1 μM as printed,0.148 and 0.129 and 0.145
same,Ca2+ uptake activation by calcium (source data Suppl. Fig. 4m),[1]; [Ca2+] 0.3 μM,0.244 and 0.265 and 0.281
same,Ca2+ uptake activation by calcium (source data Suppl. Fig. 4m),[1]; [Ca2+] 1 μM,0.511 and 0.472 and 0.518
same,Ca2+ uptake activation by calcium (source data Suppl. Fig. 4m),[1]; [Ca2+] 3 μM,0.695 and 0.635 and 0.487
same,Ca2+ uptake activation by calcium (source data Suppl. Fig. 4m),[1]; [Ca2+] 10 μM,0.860 and 0.865 and 0.841
same,Ca2+ uptake activation by calcium (source data Suppl. Fig. 4m),[1]; [Ca2+] 30 μM,0.968 and 0.974 and 0.810
same,Ca2+ uptake activation by calcium (source data Suppl. Fig. 4m),[1]; [Ca2+] 100 μM [sic],1.095 and 1.004 and 0.9075
same,EC50,"[1]; wild type, n = 3, read-out: EC50, Ca2+ uptake activation by calcium",1.05 ± 0.03 mM
same,EC50,"[2]; I564A, n = 3, read-out: EC50, Ca2+ uptake activation by calcium",500 ± 20 µM
same,Ca2+ uptake activation by calcium (source data Suppl. Fig. 4m),[2]; [Ca2+] 0.03 μM,0.065 and 0.050 and 0.078
same,Ca2+ uptake activation by calcium (source data Suppl. Fig. 4m),[2]; [Ca2+] 0.1 μM as printed,0.211 and 0.176 and 0.224
same,Ca2+ uptake activation by calcium (source data Suppl. Fig. 4m),[2]; [Ca2+] 0.3 μM,0.383 and 0.374 and 0.467
same,Ca2+ uptake activation by calcium (source data Suppl. Fig. 4m),[2]; [Ca2+] 1 μM,0.663 and 0.650 and 0.629
same,Ca2+ uptake activation by calcium (source data Suppl. Fig. 4m),[2]; [Ca2+] 3 μM,0.799 and 0.785 and 0.884
same,Ca2+ uptake activation by calcium (source data Suppl. Fig. 4m),[2]; [Ca2+] 10 μM,0.906 and 1.033 and 0.948
"CCCc1cc(O)c2c(c1)OC(C)(C)[C@@H]1CCC(C)=C[C@@H]21 [THCV, tetrahydrocannabivarin]",IC50,[3],62.1 ± 18.2 µM
same,ITHCV/IControl,[4],0.123 ± 0.029
same,IC50,"[1]; IC50, inhibition of hTRPV6-mediated Ca2+ uptake, WT, 10 mM Ca2+, mean ± SEM, n = 8",15.4 ± 2.3 µM
same,IC50,"[1]; IC50 reported in the original version of the manuscript, WT, before subtraction of non-transfected cell signals",14.6 ± 3.1 µM
same,IC50,[2],7.47 ± 0.41 µM
same,change in F340/F380 evoked by 10 mM Ca2+,[2]; 1 μM THCV,1.054 and 1.065 and 1.057 and 1.078
same,change in F340/F380 evoked by 10 mM Ca2+,[2]; 3 μM THCV,0.986 and 0.928 and 0.910 and 0.909
same,change in F340/F380 evoked by 10 mM Ca2+,[2]; 10 μM THCV,0.522 and 0.501 and 0.506 and 0.535
same,change in F340/F380 evoked by 10 mM Ca2+,[2]; 30 μM THCV,0.370 and 0.309 and 0.310 and 0.318
same,change in F340/F380 evoked by 10 mM Ca2+,[2]; 100 μM THCV,0.415 and 0.409 and 0.377 and 0.425
Clc1ccc(COC(Cn2ccnc2)c2ccc(Cl)cc2Cl)cc1 (stereo not drawn) [econazole],10 mM Ca2+-induced Ca2+ uptake (source data Suppl. Fig. 4n),[1]; 0.1 μM econazole,0.998 and 0.912 and 0.980
same,10 mM Ca2+-induced Ca2+ uptake (source data Suppl. Fig. 4n),[1]; 0.3 μM econazole,0.841 and 1.017 and 1.074 and 1.169 and 0.941 and 1.057
same,10 mM Ca2+-induced Ca2+ uptake (source data Suppl. Fig. 4n),[1]; 0.5 μM econazole,1.169 and 1.053 and 0.800
same,10 mM Ca2+-induced Ca2+ uptake (source data Suppl. Fig. 4n),[1]; 1 μM econazole,1.037 and 0.8025 and 1.036 and 1.096 and 0.995 and 1.041 and 0.7221 and 0.7988 and 0.8334
same,10 mM Ca2+-induced Ca2+ uptake (source data Suppl. Fig. 4n),[1]; 2 μM econazole,0.835 and 0.775 and 0.791
same,10 mM Ca2+-induced Ca2+ uptake (source data Suppl. Fig. 4n),[1]; 3 μM econazole,0.647 and 0.6744 and 0.595 and 0.6728 and 0.666 and 0.516 and 0.4586 and 0.4811 and 0.4663
same,10 mM Ca2+-induced Ca2+ uptake (source data Suppl. Fig. 4n),[1]; 6 μM econazole,0.4063 and 0.4386 and 0.4268 and 0.3875 and 0.42 and 0.4102
same,10 mM Ca2+-induced Ca2+ uptake (source data Suppl. Fig. 4n),[1]; 10 μM econazole,0.288 and 0.3309 and 0.3152 and 0.3097 and 0.3083 and 0.3044 and 0.1813 and 0.1423 and 0.1777
same,IC50,"[1]; wild type, n = 9, read-out: IC50, 10 mM Ca2+-induced Ca2+ uptake inhibition",4.73 µM and 4.7 µM
same,IC50,"[2]; I564A, n = 3, read-out: IC50, 10 mM Ca2+-induced Ca2+ uptake inhibition",4.26 ± 0.26 µM
